From patent US20210369853A1, “TARGETED PROTEASE DEGRADATION PLATFORM” (EUBULUS BIOTHERAPEUTICS INC., priority 2018, published 2021)

What follows are compounds tested on Human Colon Cancer HCT-116 (assay: Cell proliferation experiment (Alarm blue, 72 h, EC50)). Conditions: Homo sapiens, HCT-116; HCT116 cells.
Type: cell-based
Procedure, shortened: (§1)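 Alamar blue fluorescence after 72 h compound exposure; 5-fold serial dilutions, duplicate wells per concentration; EC50 from four-parameter logistic fit.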

EC50 [nM]	SMILES
> 1000	O=C1CCC(N2Cc3c(NC(=O)CCCNC(=O)[C@]4(Cc5cccc(Nc6nccs6)n5)CC[C@@H](Oc5cccc(Cl)c5F)CC4)cccc3C2=O)C(=O)N1 (stereo partly shown) [UB-180574]
> 1000	O=C1CCC(N2Cc3c(NC(=O)COCCNC(=O)c4ccc(Nc5ncc6c(n5)-c5ccc(Cl)cc5C(c5c(F)cccc5F)=NC6)cc4)cccc3C2=O)C(=O)N1 (stereo not shown) [UB-180509]
> 1000	O=C1CCC(N2Cc3c(NC(=O)COCCCNC(=O)[C@]4(Cc5cccc(Nc6nccs6)n5)CC[C@@H](Oc5cccc(Cl)c5F)CC4)cccc3C2=O)C(=O)N1 (stereo partly shown) [UB-180588]
100 to 1000	O=C1CCC(N2Cc3c(NC(=O)CCCNC(=O)c4ccc(Nc5ncc6c(n5)-c5ccc(Cl)cc5C(c5c(F)cccc5F)=NC6)cc4)cccc3C2=O)C(=O)N1 (stereo not shown) [UB-180501]
> 1000	Cc1sc2c(c1C)C(c1ccc(Cl)cc1)=N[C@@H](CC(=O)NCCCNCCCC(=O)Nc1cccc3c1CN(C1CCC(=O)NC1=O)C3=O)c1nnc(C)n1-2 (stereo partly shown) [UB-180640]
> 1000	O=C1CCC(N2Cc3c(NC(=O)CCOCCOCCOCCOCCNC(=O)[C@]4(Cc5cccc(Nc6nccs6)n5)CC[C@@H](Oc5cccc(Cl)c5F)CC4)cccc3C2=O)C(=O)N1 (stereo partly shown) [UB-180575]
> 1000	O=C1CCC(N2Cc3c(NC(=O)COCCOCCOCCNC(=O)[C@]4(Cc5cccc(Nc6nccs6)n5)CC[C@@H](Oc5cccc(Cl)c5F)CC4)cccc3C2=O)C(=O)N1 (stereo partly shown) [UB-180573]
> 1000	Cc1sc2c(c1C)C(c1ccc(Cl)cc1)=N[C@@H](CC(=O)NCCOCCOCCOCCNCCC(=O)Nc1cccc3c1CN(C1CCC(=O)NC1=O)C3=O)c1nnc(C)n1-2 (stereo partly shown) [UB-180635]
> 1000	O=C1CCC(N2Cc3c(NC(=O)CCOCCCOCCOCCNC(=O)c4ccc(Nc5ncc6c(n5)-c5ccc(Cl)cc5C(c5c(F)cccc5F)=NC6)cc4)cccc3C2=O)C(=O)N1 (stereo not shown) [UB-180610]
> 1000	Cc1sc2c(c1C)C(c1ccc(Cl)cc1)=N[C@@H](CC(=O)NCCOCCOCCOCCNCCCC(=O)Nc1cccc3c1CN(C1CCC(=O)NC1=O)C3=O)c1nnc(C)n1-2 (stereo partly shown) [UB-180648]

Each compound was assayed on Human Monocytic Leukemia MV4-11 in the same assay as above. Conditions: Homo sapiens, MV4-11, MV4;11 cells.
Type: cell-based
Procedure, shortened: as §1

EC50 [nM]	SMILES
> 1000	O=C1CCC(N2Cc3c(NC(=O)CCCNC(=O)[C@]4(Cc5cccc(Nc6nccs6)n5)CC[C@@H](Oc5cccc(Cl)c5F)CC4)cccc3C2=O)C(=O)N1 (stereo partly shown) [UB-180574]
> 1000	O=C1CCC(N2Cc3c(NC(=O)COCCNC(=O)c4ccc(Nc5ncc6c(n5)-c5ccc(Cl)cc5C(c5c(F)cccc5F)=NC6)cc4)cccc3C2=O)C(=O)N1 (stereo not shown) [UB-180509]
> 1000	O=C1CCC(N2Cc3c(NC(=O)COCCCNC(=O)[C@]4(Cc5cccc(Nc6nccs6)n5)CC[C@@H](Oc5cccc(Cl)c5F)CC4)cccc3C2=O)C(=O)N1 (stereo partly shown) [UB-180588]
> 1000	O=C1CCC(N2Cc3c(NC(=O)CCCNC(=O)c4ccc(Nc5ncc6c(n5)-c5ccc(Cl)cc5C(c5c(F)cccc5F)=NC6)cc4)cccc3C2=O)C(=O)N1 (stereo not shown) [UB-180501]
100 to 1000	Cc1sc2c(c1C)C(c1ccc(Cl)cc1)=N[C@@H](CC(=O)NCCCNCCCC(=O)Nc1cccc3c1CN(C1CCC(=O)NC1=O)C3=O)c1nnc(C)n1-2 (stereo partly shown) [UB-180640]
10 to 100	O=C1CCC(N2Cc3c(NC(=O)CCOCCOCCOCCOCCNC(=O)[C@]4(Cc5cccc(Nc6nccs6)n5)CC[C@@H](Oc5cccc(Cl)c5F)CC4)cccc3C2=O)C(=O)N1 (stereo partly shown) [UB-180575]
> 1000	O=C1CCC(N2Cc3c(NC(=O)COCCOCCOCCNC(=O)[C@]4(Cc5cccc(Nc6nccs6)n5)CC[C@@H](Oc5cccc(Cl)c5F)CC4)cccc3C2=O)C(=O)N1 (stereo partly shown) [UB-180573]
10 to 100	O=C1CCC(N2Cc3c(NC(=O)CCOCCCOCCOCCNC(=O)c4ccc(Nc5ncc6c(n5)-c5ccc(Cl)cc5C(c5c(F)cccc5F)=NC6)cc4)cccc3C2=O)C(=O)N1 (stereo not shown) [UB-180610]
100 to 1000	CC[C@@H]1C(=O)N(C)c2cnc(Nc3ccc(C(=O)NCc4cn(CCNCC(=O)Nc5cccc6c5CN(C5CCC(=O)NC5=O)C6=O)nn4)cc3OC)nc2N1Cc1ccc(Br)cc1 (stereo partly shown) [UB-180692]
100 to 1000	Cc1ncsc1-c1ccc(CNC(=O)[C@@H]2C[C@@H](O)CN2C(=O)[C@@H](NC(=O)CCCNC(=O)c2ccc(Nc3ncc4c(n3)-c3ccc(Cl)cc3C(c3c(F)cccc3F)=NC4)cc2)C(C)(C)C)cc1 [UB-180505]
100 to 1000	Cc1ncsc1-c1ccc(CNC(=O)[C@@H]2C[C@@H](O)CN2C(=O)[C@@H](NC(=O)CCOCCCOCCOCCNC(=O)[C@]2(Cc3cccc(Nc4nccs4)n3)CC[C@@H](Oc3cccc(Cl)c3F)CC2)C(C)(C)C)cc1 [UB-180600]
10 to 100	CC[C@@H]1C(=O)N(C)c2cnc(Nc3ccc(C(=O)NCc4cn(CCNCCOCC(=O)Nc5cccc6c5CN(C5CCC(=O)NC5=O)C6=O)nn4)cc3OC)nc2N1Cc1ccc(C#N)s1 (stereo partly shown) [UB-180765]
> 1000	CC[C@@H]1c2c(C#N)ncn2-c2cnc(Nc3ccc(C(=O)NCCC(=O)N[C@H](C(=O)N4C[C@H](O)C[C@H]4C(=O)NCc4ccc(-c5scnc5C)cc4)C(C)(C)C)cc3OC)nc2N1C1CCCC1 [UB-180623]
10 to 100	CC[C@@H]1C(=O)N(C)c2cnc(Nc3ccc(C(=O)NCCOCCNCCC(=O)Nc4cccc5c4CN(C4CCC(=O)NC4=O)C5=O)cc3OC)nc2N1C1CCCC1 (stereo partly shown) [UB-180696]
10 to 100	CC[C@@H]1C(=O)N(C)c2cnc(Nc3ccc(C(=O)NC4CCN(CCOCCN(C=O)CC(=O)Nc5cccc6c5CN(C5CCC(=O)NC5=O)C6=O)CC4)cc3OC)nc2N1C1CCCC1 (stereo partly shown) [UB-180834]
10 to 100	CC[C@@H]1C(=O)N(C)c2cnc(Nc3ccc(C(=O)NC4CCN(CCNCCCCC(=O)Nc5cccc6c5CN(C5CCC(=O)NC5=O)C6=O)CC4)cc3OC)nc2N1Cc1ccc(Br)cc1 (stereo partly shown) [UB-180685]
100 to 1000	O=C1CCC(N2Cc3c(NC(=O)CCNCCOCCOCCOCCOCCNC(=O)[C@]4(Cc5cccc(Nc6nccs6)n5)CC[C@@H](Oc5cccc(Cl)c5F)CC4)cccc3C2=O)C(=O)N1 (stereo partly shown) [UB-180808]
10 to 100	CC[C@@H]1C(=O)N(C)c2cnc(Nc3ccc(C(=O)NCCOCCOCCOCCNCCCCCC(=O)Nc4cccc5c4CN(C4CCC(=O)NC4=O)C5=O)cc3OC)nc2N1C1CCCC1 (stereo partly shown) [UB-180649]
> 1000	O=C1CCC(N2Cc3c(NC(=O)COCCOCCOCCNCCNC(=O)c4ccc(Nc5ncc6c(n5)-c5ccc(Cl)cc5C(c5c(F)cccc5F)=NC6)cc4)cccc3C2=O)C(=O)N1 (stereo not shown) [UB-180794]
100 to 1000	CC[C@@H]1c2c(C#N)ncn2-c2cnc(Nc3ccc(C(=O)NCC(=O)N[C@H](C(=O)N4C[C@H](O)C[C@H]4C(=O)NCc4ccc(-c5scnc5C)cc4)C(C)(C)C)cc3OC)nc2N1C1CCCC1 [UB-180592]
100 to 1000	Cc1ncsc1-c1ccc(CNC(=O)[C@@H]2C[C@@H](O)CN2C(=O)[C@@H](NC(=O)CCOCCOCCOCCOCCNC(=O)[C@]2(Cc3cccc(Nc4nccs4)n3)CC[C@@H](Oc3cccc(Cl)c3F)CC2)C(C)(C)C)cc1 [UB-180576]

EC50 [nM]	SMILES
100 to 1000	Cc1ncsc1-c1ccc(CNC(=O)[C@@H]2C[C@@H](O)CN2C(=O)[C@@H](NC(=O)CCOCCOCCOCCNC(=O)[C@]2(Cc3cccc(Nc4nccs4)n3)CC[C@@H](Oc3cccc(Cl)c3F)CC2)C(C)(C)C)cc1 [UB-180612]
> 1000	CC[C@@H]1C(=O)N(C)c2cnc(Nc3ccc(C(=O)NCC(=O)Nc4cccc5c4CN(C4CCC(=O)NC4=O)C5=O)cc3OC)nc2N1C1CCCC1 (stereo partly shown) [UB-180570]
10 to 100	CC[C@@H]1C(=O)N(C)c2cnc(Nc3ccc(C(=O)NC4CCN(CCCCC(=O)Nc5cccc6c5CN(C5CCC(=O)NC5=O)C6=O)CC4)cc3OC)nc2N1C1CCCC1 (stereo partly shown) [UB-180596]
10 to 100	CC[C@@H]1C(=O)N(C)c2cnc(Nc3ccc(C(=O)NC4CCN(CCNCCOCC(=O)Nc5cccc6c5CN(C5CCC(=O)NC5=O)C6=O)CC4)cc3OC)nc2N1C(C)C (stereo partly shown) [UB-180712]
10 to 100	CC[C@@H]1C(=O)N(C)c2cnc(Nc3ccc(C(=O)NCc4cn(CCNCCOCC(=O)Nc5cccc6c5CN(C5CCC(=O)NC5=O)C6=O)nn4)cc3OC)nc2N1Cc1cc(Cl)cs1 (stereo partly shown) [UB-180763]
10 to 100	Cc1ncsc1-c1ccc(CNC(=O)[C@@H]2C[C@@H](O)CN2C(=O)[C@@H](NC(=O)COCCOCCOCCNC(=O)c2ccc(Nc3ncc4c(n3)-c3ccc(Cl)cc3C(c3c(F)cccc3F)=NC4)cc2)C(C)(C)C)cc1 [UB-180514]
100 to 1000	O=C1CCC(N2Cc3c(NC(=O)CCNCCOCCN4CCC(NC(=O)[C@]5(Cc6cccc(Nc7nccs7)n6)CC[C@@H](Oc6cccc(Cl)c6F)CC5)CC4)cccc3C2=O)C(=O)N1 (stereo partly shown) [UB-180776]
100 to 1000	O=C1CCC(N2Cc3c(NC(=O)COCCNCCn4cc(CNC(=O)c5ccc(Nc6ncc7c(n6)-c6ccc(Cl)cc6C(c6c(F)cccc6F)=NC7)cc5)nn4)cccc3C2=O)C(=O)N1 (stereo not shown) [UB-180732]
> 1000	O=C1CCC(N2Cc3c(NC(=O)CCNCCOC4CCN(CCOCCNC(=O)c5ccc(Nc6ncc7c(n6)-c6ccc(Cl)cc6C(c6c(F)cccc6F)=NC7)cc5)CC4)cccc3C2=O)C(=O)N1 (stereo not shown) [UB-180821]
10 to 100	CC[C@@H]1C(=O)N(C)c2cnc(Nc3ccc(C(=O)NCc4cn(CCNCCC(=O)Nc5cccc6c5CN(C5CCC(=O)NC5=O)C6=O)nn4)cc3OC)nc2N1Cc1ccc(Br)cc1 (stereo partly shown) [UB-180679]
100 to 1000	O=C1CCC(N2Cc3c(NC(=O)CCCCCNCCOCCOCCOCCNC(=O)c4ccc(Nc5ncc6c(n5)-c5ccc(Cl)cc5C(c5c(F)cccc5F)=NC6)cc4)cccc3C2=O)C(=O)N1 (stereo not shown) [UB-180770]
> 1000	O=C1CCC(N2Cc3c(NC(=O)CCNCCn4cc(COCCNC(=O)c5ccc(Nc6ncc7c(n6)-c6ccc(Cl)cc6C(c6c(F)cccc6F)=NC7)cc5)nn4)cccc3C2=O)C(=O)N1 (stereo not shown) [UB-180822]
100 to 1000	O=C1CCC(N2Cc3c(NC(=O)CCNCCOCCOCCOCCOCCNC(=O)c4ccc(Nc5ncc6c(n5)-c5ccc(Cl)cc5C(c5c(F)cccc5F)=NC6)cc4)cccc3C2=O)C(=O)N1 (stereo not shown) [UB-180807]
10 to 100	Cc1ncsc1-c1ccc(CNC(=O)[C@@H]2C[C@@H](O)CN2C(=O)[C@@H](NC(=O)CCOCCCOCCOCCNC(=O)c2ccc(Nc3ncc4c(n3)-c3ccc(Cl)cc3C(c3c(F)cccc3F)=NC4)cc2)C(C)(C)C)cc1 [UB-180609]
10 to 100	CC[C@@H]1C(=O)N(C)c2cnc(Nc3ccc(C(=O)NCCOCCOCCOCCOCCNCCC(=O)Nc4cccc5c4CN(C4CCC(=O)NC4=O)C5=O)cc3OC)nc2N1C1CCCC1 (stereo partly shown) [UB-180813]
100 to 1000	Cc1ncsc1-c1ccc(CNC(=O)[C@@H]2C[C@@H](O)CN2C(=O)[C@@H](NC(=O)COCCCNC(=O)c2ccc(Nc3ncc4c(n3)-c3ccc(Cl)cc3C(c3c(F)cccc3F)=NC4)cc2)C(C)(C)C)cc1 [UB-180506]
> 1000	Cc1ncsc1-c1ccc(CNC(=O)[C@@H]2C[C@@H](O)CN2C(=O)[C@@H](NC(=O)COCCNC(=O)[C@]2(Cc3cccc(Nc4nccs4)n3)CC[C@@H](Oc3cccc(Cl)c3F)CC2)C(C)(C)C)cc1 [UB-180578]
100 to 1000	O=C1CCC(N2Cc3c(NC(=O)COCCNCCN4CCC(NC(=O)c5ccc(Nc6ncc7c(n6)-c6ccc(Cl)cc6C(c6c(F)cccc6F)=NC7)cc5)CC4)cccc3C2=O)C(=O)N1 (stereo not shown) [UB-180740]
> 1000	O=C1CCC(N2Cc3c(NC(=O)CCOCCOCCOCCNCCNC(=O)c4ccc(Nc5ncc6c(n5)-c5ccc(Cl)cc5C(c5c(F)cccc5F)=NC6)cc4)cccc3C2=O)C(=O)N1 (stereo not shown) [UB-180796]
> 1000	O=C1CCC(N2Cc3c(NC(=O)CCNCCn4ncc(CNC(=O)c5ccc(Nc6ncc7c(n6)-c6ccc(Cl)cc6C(c6c(F)cccc6F)=NC7)cc5)n4)cccc3C2=O)C(=O)N1 (stereo not shown) [UB-180761]
10 to 100	CC[C@@H]1C(=O)N(C)c2cnc(Nc3ccc(C(=O)NCCNCCCC(=O)Nc4cccc5c4CN(C4CCC(=O)NC4=O)C5=O)cc3OC)nc2N1C1CCCC1 (stereo partly shown) [UB-180689]
